The values below come from BindingDB's records for doi:10.1021/jm000085e (Synaptic Pharmaceutical, 2000).

A short description of this assay: Binding affinity towards Alpha1D dog adrenergic receptors, using [125I]-HEAT as radioligand.

Turning to `C[C@@H]1OC(=O)N(C(=O)NCCCN2CCC(c3ccc(F)cc3)CC2)[C@H]1c1ccc(F)c(F)c1` [4-(3,4-Difluoro-phenyl)-5-methyl-2-oxo-oxazolidine-3-carboxylic acid {3-[4-(4-fluoro-phenyl)-piperidin-1-yl]-propyl}-amide], the Ki (as a rule, a dissociation constant, usually derived from enzyme kinetics or from competition with a known ligand) turned out to be 133 nM.
